Results on 15 molecules are retold here after patent publication US20240208992A1, “MACROCYCLES AS CFTR MODULATORS” (Idorsia Pharmaceuticals Ltd, priority 2021, published 2024).

The target of this experiment is human F508del-CFTR (Homo sapiens, UniProt P13569, DEL508-508). Description: F508del-CFTR cell surface expression (corrector activity), DiscoveRx ß-galactosidase complementation chemiluminescence assay in recombinant U2OS cell line.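 For all read-outs here: U2OS cells co-expressing ProLink-tagged F508del-CFTR and a membrane-anchored enzyme acceptor, where more surface CFTR restores β-galactosidase activity measured by chemiluminescence.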 The following applies: for EC50: EC50, F508del-CFTR cell surface expression, U2OS cells, 16h compound incubation, geomean values; for Emax: U2OS, in relation to Emax of corrector lumacaftor (=100%), arithmetic mean values.
Chain of human F508del-CFTR (P13569 with tags, fused parts or gaps DEL508-508): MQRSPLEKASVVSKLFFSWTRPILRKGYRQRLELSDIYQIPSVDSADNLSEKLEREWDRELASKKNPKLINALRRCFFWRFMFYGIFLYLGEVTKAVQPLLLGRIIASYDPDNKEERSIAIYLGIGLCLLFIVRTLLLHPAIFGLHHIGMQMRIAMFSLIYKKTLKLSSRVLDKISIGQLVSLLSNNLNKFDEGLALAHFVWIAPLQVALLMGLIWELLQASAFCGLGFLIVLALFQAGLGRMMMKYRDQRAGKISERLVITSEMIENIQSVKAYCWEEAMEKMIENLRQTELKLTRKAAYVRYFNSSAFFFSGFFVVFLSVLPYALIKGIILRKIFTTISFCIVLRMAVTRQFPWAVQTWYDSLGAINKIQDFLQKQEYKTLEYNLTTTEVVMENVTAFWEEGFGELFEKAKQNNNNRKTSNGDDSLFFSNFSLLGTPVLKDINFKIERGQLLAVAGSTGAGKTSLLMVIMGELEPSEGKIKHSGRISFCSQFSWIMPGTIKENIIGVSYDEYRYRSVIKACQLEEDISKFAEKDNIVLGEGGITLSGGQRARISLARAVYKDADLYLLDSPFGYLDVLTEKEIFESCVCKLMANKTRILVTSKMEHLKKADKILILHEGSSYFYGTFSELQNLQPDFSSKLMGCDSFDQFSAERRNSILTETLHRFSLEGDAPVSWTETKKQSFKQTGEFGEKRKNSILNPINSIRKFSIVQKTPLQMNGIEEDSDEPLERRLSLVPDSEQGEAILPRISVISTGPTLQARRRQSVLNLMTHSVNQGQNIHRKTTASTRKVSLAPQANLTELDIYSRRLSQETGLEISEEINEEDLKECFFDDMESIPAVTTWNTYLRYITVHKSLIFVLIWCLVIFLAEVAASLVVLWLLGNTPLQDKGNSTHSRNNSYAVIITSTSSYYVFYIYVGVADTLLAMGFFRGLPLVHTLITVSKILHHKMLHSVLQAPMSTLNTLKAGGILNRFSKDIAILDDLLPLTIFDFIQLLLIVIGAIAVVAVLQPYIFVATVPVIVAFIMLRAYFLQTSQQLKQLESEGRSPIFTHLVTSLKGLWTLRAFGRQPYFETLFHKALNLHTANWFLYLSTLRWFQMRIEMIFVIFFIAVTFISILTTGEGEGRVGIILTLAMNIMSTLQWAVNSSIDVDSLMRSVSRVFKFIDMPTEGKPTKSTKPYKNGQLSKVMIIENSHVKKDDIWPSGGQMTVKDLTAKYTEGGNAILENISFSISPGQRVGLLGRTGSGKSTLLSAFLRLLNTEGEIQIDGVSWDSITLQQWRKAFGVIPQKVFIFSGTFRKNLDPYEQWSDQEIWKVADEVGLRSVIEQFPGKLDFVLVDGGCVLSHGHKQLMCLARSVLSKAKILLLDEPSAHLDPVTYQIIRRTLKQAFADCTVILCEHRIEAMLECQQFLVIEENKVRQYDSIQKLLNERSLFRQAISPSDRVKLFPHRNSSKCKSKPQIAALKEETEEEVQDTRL

On to `COc1cc(OC)c2c(c1)OC[C@@H](Cc1ccccc1)NC(=O)[C@H]1CCCCN1C(=O)[C@H](CC(C)C)N(C)C(=O)C[C@@H](C(=O)NCCc1cc(C)no1)NC2=O` [Example 609, (7S,11S,20R,22aR)-20-benzyl-7-isobutyl-14,16-dimethoxy-8-methyl-N-(2-(3-methylisoxazol-5-yl)ethyl)-6,9,13,22-tetraoxo-1,3,4,6,7,8,9,10,11,12,13,19,20,21,22,22a-hexadecahydro-2H-benzo[p]pyrido[2,1-f][1]oxa[4,7,10,14]tetraazacycloheptadecine-11-carboxamide], for which the EC50 amounted to 574 nM and the Emax was 320%.

As for `CC(C)C[C@H]1C(=O)N(CCC2CCCCC2)CC(=O)N[C@H](Cc2ccccc2)COc2cnc3ccccc3c2C(=O)N[C@H](C(=O)NCCc2ccc3c(c2)OCO3)CC(=O)N1C` [Example 610, (3S,7S,13R)-N-(2-(benzo[d][1,3]dioxol-5-yl)ethyl)-13-benzyl-9-(2-cyclohexylethyl)-7-isobutyl-6-methyl-1,5,8,11-tetraoxo-1,2,3,4,5,6,7,8,9,10,11,12,13,14-tetradecahydro-[1]oxa[4,7,10,14]tetraazacycloheptadecino[17,16-c]quinoline-3-carboxamide], the EC50 stood at 89 nM and the Emax came out at 311%.

With `COc1cccc(CCNC(=O)[C@@H]2CC(=O)N(C)[C@@H](CC(C)C)C(=O)N3CCN(C(C)C)C[C@@H]3C(=O)N[C@H](Cc3ccccc3)COc3cccc(OC)c3C(=O)N2)c1` [Example 611, (7S,11S,20R,22aR)-20-benzyl-7-isobutyl-2-isopropyl-14-methoxy-N-(3-methoxyphenethyl)-8-methyl-6,9,13,22-tetraoxo-1,3,4,6,7,8,9,10,11,12,13,19,20,21,22,22a-hexadecahydro-2H-benzo[p]pyrazino[2,1-f][1]oxa[4,7,10,14]tetraazacycloheptadecine-11-carboxamide], the EC50 was 344 nM and the Emax was determined as 251%.

Regarding `COc1cccc(CCNC(=O)[C@@H]2CC(=O)N(C)[C@@H](CC(C)C)C(=O)N3CCN(CC(C)C)C[C@@H]3C(=O)N[C@H](Cc3ccccc3)COc3cccc(OC)c3C(=O)N2)c1` [Example 612, (7S,11S,20R,22aR)-20-benzyl-2,7-diisobutyl-14-methoxy-N-(3-methoxyphenethyl)-8-methyl-6,9,13,22-tetraoxo-1,3,4,6,7,8,9,10,11,12,13,19,20,21,22,22a-hexadecahydro-2H-benzo[p]pyrazino[2,1-f][1]oxa[4,7,10,14]tetraazacycloheptadecine-11-carboxamide], the EC50 was 148 nM and the Emax amounted to 298%.

For the molecule `COc1cc(CCNC(=O)[C@@H]2CC(=O)N(C)[C@@H](CC(C)C)C(=O)N3CCN(CC(C)C)C[C@@H]3C(=O)N[C@H](Cc3ccccc3)COc3ccc4ccccc4c3C(=O)N2)cc(OC)c1` [Example 613, (4aR,7R,18S,22S)-7-benzyl-N-(3,5-dimethoxyphenethyl)-3,22-diisobutyl-21-methyl-5,16,20,23-tetraoxo-2,3,4,4a,5,6,7,8,16,17,18,19,20,21,22,23-hexadecahydro-1H-naphtho[1,2-p]pyrazino[2,1-f][1]oxa[4,7,10,14]tetraazacycloheptadecine-18-carboxamide], the EC50 turned out to be 82 nM and the Emax came to 312%.

As for `COc1cccc(CCNC(=O)[C@@H]2CC(=O)N(C)[C@@H](CC(C)C)C(=O)N3CCCC[C@@H]3C(=O)N[C@H](Cc3ccccc3)COc3ccc4nc(C)oc4c3C(=O)N2)c1` [Example 614, (8S,12S,18aR,21R)-21-benzyl-12-isobutyl-N-(3-methoxyphenethyl)-4,11-dimethyl-6,10,13,19-tetraoxo-6,7,8,9,10,11,12,13,16,17,18,18a,19,20,21,22-hexadecahydro-15H-oxazolo[4′,5′:5,6]benzo[1,2-p]pyrido[2,1-f][1]oxa[4,7,10,14]tetraazacycloheptadecine-8-carboxamide], the EC50 amounted to 484 nM and the Emax amounted to 317%.

For the molecule `COc1cccc(CCNC(=O)[C@@H]2CC(=O)N(C)[C@@H](CC(C)C)C(=O)N3CCCC[C@H]3C(=O)N[C@H](Cc3ccccc3)COc3ccc4nc(C)oc4c3C(=O)N2)c1` [Example 615, (8S,12S,18aS,21R)-21-benzyl-12-isobutyl-N-(3-methoxyphenethyl)-4,11-dimethyl-6,10,13,19-tetraoxo-6,7,8,9,10,11,12,13,16,17,18,18a,19,20,21,22-hexadecahydro-15H-oxazolo[4′,5′:5,6]benzo[1,2-p]pyrido[2,1-f][1]oxa[4,7,10,14]tetraazacycloheptadecine-8-carboxamide], the EC50 turned out to be 465 nM and the Emax is 170%.

In the case of `CC(C)C[C@H]1C(=O)N(C)CC(=O)N[C@H](Cc2ccccc2)COc2cccc(OC(F)F)c2C(=O)N[C@H](C(=O)NCCc2ccc3c(c2)OCO3)CC(=O)N1C` [Example 616, (3R,9S,13S)-N-(2-(benzo[d][1,3]dioxol-5-yl)ethyl)-3-benzyl-16-(difluoromethoxy)-9-isobutyl-7,10-dimethyl-5,8,11,15-tetraoxo-2,3,4,5,6,7,8,9,10,11,12,13,14,15-tetradecahydrobenzo[p][1]oxa[4,7,10,14]tetraazacycloheptadecine-13-carboxamide], the EC50 turned out to be 581 nM and the Emax is 92%.

As to `Cc1cc(CCNC(=O)[C@@H]2CC(=O)N(C)[C@@H](CC(C)C)C(=O)N3CCN(CC(C)C)C[C@@H]3C(=O)N[C@H](Cc3ccccc3)COc3ccc4ccccc4c3C(=O)N2)on1` [Example 617, (4aR,7R,18S,22S)-7-benzyl-3,22-diisobutyl-21-methyl-N-(2-(3-methylisoxazol-5-yl)ethyl)-5,16,20,23-tetraoxo-2,3,4,4a,5,6,7,8,16,17,18,19,20,21,22,23-hexadecahydro-1H-naphtho[1,2-p]pyrazino[2,1-f][1]oxa[4,7,10,14]tetraazacycloheptadecine-18-carboxamide], the EC50 turned out to be 75 nM and the Emax came to 318%.

Consider `COc1cc(CCNC(=O)[C@@H]2CC(=O)N(C)[C@@H](CC(C)C)C(=O)N3CCN(C(C)C)C[C@@H]3C(=O)N[C@H](Cc3ccccc3)COc3ccc4ccccc4c3C(=O)N2)cc(OC)c1` [Example 618, (4aR,7R,18S,22S)-7-benzyl-N-(3,5-dimethoxyphenethyl)-22-isobutyl-3-isopropyl-21-methyl-5,16,20,23-tetraoxo-2,3,4,4a,5,6,7,8,16,17,18,19,20,21,22,23-hexadecahydro-1H-naphtho[1,2-p]pyrazino[2,1-f][1]oxa[4,7,10,14]tetraazacycloheptadecine-18-carboxamide], for which the EC50 was determined as 80 nM and the maximum response (Emax) turned out to be 309%.

For the molecule `COc1cccc(CCNC(=O)[C@@H]2CC(=O)N(C)[C@@H](CC(C)C)C(=O)N3CCN(CC(C)C)C[C@@H]3C(=O)N[C@H](Cc3ccccc3)COc3ccc4nc(C)oc4c3C(=O)N2)c1` [Example 619, (8S,12S,18aR,21R)-21-benzyl-12,17-diisobutyl-N-(3-methoxyphenethyl)-4,11-dimethyl-6,10,13,19-tetraoxo-6,7,8,9,10,11,12,13,16,17,18,18a,19,20,21,22-hexadecahydro-15H-oxazolo[4′,5′:5,6]benzo[1,2-p]pyrazino[2,1-f][1]oxa[4,7,10,14]tetraazacycloheptadecine-8-carboxamide], the EC50 was 155 nM and the Emax was found to be 322%.

As for `Cc1cc(CCNC(=O)[C@@H]2CC(=O)N(C)[C@@H](CC(C)C)C(=O)N3CCN(CC(C)C)C[C@@H]3C(=O)N[C@H](Cc3ccccc3)COc3ccc4nc(C)oc4c3C(=O)N2)on1` [Example 620, (8S,12S,18aR,21R)-21-benzyl-12,17-diisobutyl-4,11-dimethyl-N-(2-(3-methylisoxazol-5-yl)ethyl)-6,10,13,19-tetraoxo-6,7,8,9,10,11,12,13,16,17,18,18a,19,20,21,22-hexadecahydro-15H-oxazolo[4′,5′:5,6]benzo[1,2-p]pyrazino[2,1-f][1]oxa[4,7,10,14]tetraazacycloheptadecine-8-carboxamide], the EC50 came out at 316 nM and the Emax was found to be 266%.

With `Cc1cc(CCNC(=O)[C@@H]2CC(=O)N(C)[C@@H](CC(C)C)C(=O)N3CCN(CC(C)C)C[C@H]3C(=O)N[C@H](Cc3ccccc3)COc3ccc4nc(C)oc4c3C(=O)N2)on1` [Example 621, (8S,12S,18aS,21R)-21-benzyl-12,17-diisobutyl-4,11-dimethyl-N-(2-(3-methylisoxazol-5-yl)ethyl)-6,10,13,19-tetraoxo-6,7,8,9,10,11,12,13,16,17,18,18a,19,20,21,22-hexadecahydro-15H-oxazolo[4′,5′:5,6]benzo[1,2-p]pyrazino[2,1-f][1]oxa[4,7,10,14]tetraazacycloheptadecine-8-carboxamide], the EC50 turned out to be 339 nM and the Emax turned out to be 288%.

As for `Cc1cc(CCNC(=O)[C@@H]2CC(=O)N(C)[C@@H](CC(C)C)C(=O)N3CCN(CC(C)C)C[C@@H]3C(=O)N[C@H](Cc3ccccc3)COc3cnc4ccccc4c3C(=O)N2)on1` [Example 622, (9S,13S,19aR,22R)-22-benzyl-13,18-diisobutyl-12-methyl-N-(2-(3-methylisoxazol-5-yl)ethyl)-7,11,14,20-tetraoxo-7,8,9,10,11,12,13,14,17,18,19,19a,20,21,22,23-hexadecahydro-16H-pyrazino[2′,1′:6,7][1]oxa[4,7,10,14]tetraazacycloheptadecino[17,16-c]quinoline-9-carboxamide], the EC50 was determined as 199 nM and the Emax worked out at 296%.

Regarding `Cc1cc(CCNC(=O)[C@@H]2CC(=O)N(C)[C@@H](CC(C)C)C(=O)N3CCN(C(C)C)C[C@@H]3C(=O)N[C@H](Cc3ccccc3)COc3ccc4ccccc4c3C(=O)N2)on1` [Example 623, (4aR,7R,18S,22S)-7-benzyl-22-isobutyl-3-isopropyl-21-methyl-N-(2-(3-methylisoxazol-5-yl)ethyl)-5,16,20,23-tetraoxo-2,3,4,4a,5,6,7,8,16,17,18,19,20,21,22,23-hexadecahydro-1H-naphtho[1,2-p]pyrazino[2,1-f][1]oxa[4,7,10,14]tetraazacycloheptadecine-18-carboxamide], the EC50 is 248 nM and the Emax amounted to 349%.

A word on the EC50: it is the concentration that produces a half-maximal response. Usually Emax stands for the greatest response seen or fitted, relative to the assay's reference.
